Tested on: NAG-1
Test: Northern blot NAG-1 induction in U937 leukemia cells
Assay type: cell-based, human
Settings: INDO treatment, 24 hr
Procedure: NSAID-induced apoptosis is not restricted to colorectal cells, as NSAIDs can induce apoptosis in breast, lung, leukemia, and prostate cell lines. To test for the induction of NAG-1 by NSAIDs in different cell lines, A549 lung epithelial cells, MCF-7 mammary cells, PC-3 prostate cancer cells, and U937 leukemia cell lines were treated with several concentrations of INDO and aspirin. Then, as described above, Northern blot analysis was performed. […] Quiescent cells were grown for 24 hr in the presence of indicated NSAIDs. Total RNAs were isolated and subjected to Northern analysis using NAG-1 and β-actin as probes. The blots contained 10 μg of total RNA from INDO- or Aspirin (Asp)-treated cells with indicated doses. “V” indicates total RNAs from vehicle (0.2% DMSO) treated cells. The results shown are representative of those obtained in two experiments.

COc1ccc2c(c1)c(CC(=O)O)c(C)n2C(=O)c1ccc(Cl)cc1 [Indomethacin]
NAG-1 expression: only a modest increase
